Assay [1] addresses T1, human CCR2B (Homo sapiens (Human), UniProt P41597). The experiment in a line: Inhibition of [125I]-labeled MCP-1 binding to hCCR2B (radioligand binding in CHO cells). Particulars: mean Ki; [125I]-MCP-1 50 pM; CHO cells expressing human CCR2B and Gα16. The text has this:
CHO cells expressing human CCR2B were generated as follows. cDNA for human CCR2B (cloned from human blood) was cloned into plasmid pcDNA3.1 (from Invitrogen). The resulting plasmids were separately transfected into CHO cells expressing human Gα16 (from Molecular Devices). […] CHO cells expressing rat CCR2 were generated as follows. cDNA for rat CCR2 (cloned from rat macrophage) was cloned into plasmid pEF-flag (from Chinese Academy of Science). The resulting plasmids were transfected into CHO cells expressing human Gα16 (from […]).
Inhibition of [^125I]-Labeled MCP-1 Binding to hCCR2B
Radioligand binding assays were performed in CHO cells expressing human CCR2B and Gα16 coupling protein. All compounds were dissolved in DMSO and assays run at a final DMSO concentration of 0.5% (v/v). [^125I]-labeled human MCP-1 was purchased from PerkinElmer. Unlabelled human MCP-1 was purchased from PeproTech.
Compounds were serially diluted in DMSO before diluting into assay buffer (25 mM HEPES, pH 7.4, 5 mM MgCl2, 1 mM CaCl2, 0.5% BSA) with cryo preserved CHO cells expressing human CCR2B and the Gα16 coupling protein (30×10^3/well) and [^125I]-MCP-1 (50 pM). The reaction was incubated at room temperature for 90 minutes before transferring to GF/C filter membrane (PerkinElmer) pre-treated with 0.3% polyethyleneimine for 2 hours at 4° C. The filter membrane was washed six times with ice cold wash buffer (25 mM HEPES, pH 7.4, 5 mM MgCl2, 1 mM CaCl2, 500 mM NaCl, 0.01% (m/v) azide), dried, and sealed in a RLB sample bag (Agilent Technologies) before adding 5.0 mL Microscint 20 to each bag. Membrane was counted on Microbeta counter where background binding was determined by the presence of 100 nM MCP-1 and control total binding was determined by addition of DMSO in place of the test compound. The radioactivity values (cpm) were used to calculate the percent inhibition at a given compound concentration and the data fit to a sigmoidal curve in a semi-log plot to determine IC50 values. The corresponding Ki value is calculated as follows:
Ki=IC50/(1+[radioligand]/Kd), where [radioligand] is the concentration of the label and Kd (dissociation constant) is determined in saturation experiment with different concentrations of labeled MCP-1.

In a further assay the target is rat CCR2 (Rattus norvegicus (Rat), UniProt O55193). The experiment in a line: Inhibition of native agonist (rat MCP-1)-induced intracellular calcium release, calcium flux assay in CHO cells expressing rat CCR2 and Gα16. Type of assay: cell-based. Particulars: read-out: rCCR2 Kb. An outline of the steps: (§1)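 Compound added to Calcium 4 dye-loaded adherent cells (dye loading 60 min, 37° C., HEPES pH 7.4 buffer with probenecid), then agonist: human MCP-1 at 2 nM final for hCCR2B cells, rat MCP-1 at 4 nM final for rCCR2 cells. FLIPR fluorescence change gave IC50. Kb=IC50/(1+[agonist]/EC50). Final DMSO 0.25%.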
Chain of rat CCR2 (O55193 whole entry): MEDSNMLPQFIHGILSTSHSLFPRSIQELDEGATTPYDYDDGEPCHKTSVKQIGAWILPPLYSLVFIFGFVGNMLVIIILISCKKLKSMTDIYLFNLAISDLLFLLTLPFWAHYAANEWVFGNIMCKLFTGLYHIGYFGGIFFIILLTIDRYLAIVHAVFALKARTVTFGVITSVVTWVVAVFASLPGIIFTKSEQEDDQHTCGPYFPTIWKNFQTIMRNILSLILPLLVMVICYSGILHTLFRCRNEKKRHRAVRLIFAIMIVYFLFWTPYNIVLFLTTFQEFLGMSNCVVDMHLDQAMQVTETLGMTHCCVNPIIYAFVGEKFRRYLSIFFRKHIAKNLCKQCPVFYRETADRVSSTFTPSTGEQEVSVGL

The target in assay [2] is T1, human CCR2B. Nature of the assay: Inhibition of native agonist (human MCP-1)-induced intracellular calcium release, calcium flux assay in CHO cells expressing human CCR2B and Gα16. Type of assay: cell-based. Particulars: for IC50: read-out: hCCR2B IC50; for Kb: read-out: hCCR2B Kb. An outline of the steps:
as §1
For orientation: Calcium assays in cells follow changes in intracellular calcium, usually with a dye or a luminescent sensor.

Assay [3] has as its target CCR2 (Rattus norvegicus (Rat), UniProt O55193). As to conditions: direct injection of MCP-1 in the spinal cord; cited from earlier work.
Assay [4] relates to CCR2. Particulars: in vivo; cited from earlier work.

Where two headings read alike, the source gives them in different places.

Data on ten compounds can be found in patent publication US8906911B2, “Chemokine receptor antagonists” (AbbVie Inc., priority 2012, dated 2014).

The Ki is the dissociation constant of the complex between target and ligand, obtained from inhibition or displacement. Low values mean a stronger hold on the target, high ones a looser hold on the target. One may read the IC50 as the concentration at which inhibition is half-maximal.

T1 sequence (P41597 other isoform, or with tags, fused parts or gaps): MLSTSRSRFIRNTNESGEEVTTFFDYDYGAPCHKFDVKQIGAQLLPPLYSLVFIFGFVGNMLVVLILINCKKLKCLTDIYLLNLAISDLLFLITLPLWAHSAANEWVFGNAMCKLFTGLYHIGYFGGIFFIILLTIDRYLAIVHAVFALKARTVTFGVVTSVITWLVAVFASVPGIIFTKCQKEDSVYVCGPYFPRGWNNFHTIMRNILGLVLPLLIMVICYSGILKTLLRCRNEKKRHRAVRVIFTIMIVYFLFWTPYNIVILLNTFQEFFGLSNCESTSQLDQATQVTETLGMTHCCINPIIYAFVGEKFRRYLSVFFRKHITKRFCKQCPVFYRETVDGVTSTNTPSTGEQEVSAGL
Chain of CCR2 (Rattus norvegicus (Rat), UniProt O55193) (O55193 whole entry): as the sequence (O55193 whole entry) above

In the case of `CO[C@@H]1COCC[C@@H]1N(C)[C@@H]1C[C@H]2CCC[C@@]2(C(=O)N2C[C@@H]3C[C@H]2CN3c2cc(C(F)(F)F)ccc2C#N)C1` [Example 53, 1,5-anhydro-3-{[(2R,3aR,6aR)-3a-({(1S,4S)-5-[2-cyano-5-(trifluoromethyl)phenyl]-2,5-diazabicyclo[2.2.1]hept-2-yl}carbonyl)octahydropentalen-2-yl](methyl)amino}-2,3-dideoxy-4-O-methyl-D-erythro-pentitol], the Ki on human CCR2B [1] came out at 16 nM. Also, the Kb at rat CCR2 is 26 nM. At human CCR2B [2], the IC50 worked out at 47.9 nM and the Kb amounted to 12 nM.
With `CO[C@@H]1COCC[C@@H]1N(C)[C@@H]1C[C@H]2CCC[C@@]2(C(=O)N2C[C@@H]3C[C@H]2CN3c2ccc(C#N)c(C(F)(F)F)c2)C1` [Example 56, 1,5-anhydro-3-{[(2R,3aR,6aR)-3a-({(1S,4S)-5-[4-cyano-3-(trifluoromethyl)phenyl]-2,5-diazabicyclo[2.2.1]hept-2-yl}carbonyl)octahydropentalen-2-yl](methyl)amino}-2,3-dideoxy-4-O-methyl-D-erythro-pentitol], the Ki on human CCR2B [1] is 32 nM. The Kb at rat CCR2 was 9 nM; at human CCR2B [2], 11 nM. Also, the IC50 on human CCR2B [2] (calcium flux, human MCP-1 2 nM) turned out to be 46 nM.
Compound `CO[C@@H]1COCC[C@@H]1N[C@@H]1C[C@H]2CCC[C@@]2(C(=O)N2C[C@@H]3C[C@H]2CN3C(=O)OC(C)(C)C)C1` [Example 60, 1,5-anhydro-3-{[(2R,3aR,6aR)-3a-{[(1S,4S)-5-(tert-butoxycarbonyl)-2,5-diazabicyclo[2.2.1]hept-2-yl]carbonyl}octahydropentalen-2-yl]amino}-2,3-dideoxy-4-O-methyl-D-erythro-pentitol] returned a Ki on human CCR2B [1] of 552 nM. In addition, the Kb on rat CCR2 was found to be 19 nM. Further, on human CCR2B [2], the IC50 came to 328 nM and the Kb stood at 81 nM.
Regarding `C[C@H]1COCC[C@@H]1N[C@@H]1C[C@H]2CCC[C@@]2(C(=O)N2C[C@@H]3C[C@H]2CN3c2cc(C(F)(F)F)ccn2)C1` [Example 61, [(2R,3aR,6aR)-2-{[(3R,4S)-3-methyltetrahydro-2H-pyran-4-yl]amino}hexahydropentalen-3a(1H)-yl]{(1S,4S)-5-[4-(trifluoromethyl)pyridin-2-yl]-2,5-diazabicyclo[2.2.1]hept-2-yl}methanone], the Ki at human CCR2B [1] stood at 69 nM. In addition, the Kb on rat CCR2 worked out at 30 nM; on human CCR2B [2] it was 25 nM. Besides, on human CCR2B [2] (calcium flux, human MCP-1 2 nM), the IC50 was 100 nM.
The matching figures for `C[C@@H]1COCC[C@@H]1N[C@@H]1C[C@H]2CCC[C@@]2(C(=O)N2C[C@@H]3C[C@H]2CN3c2cc(C(F)(F)F)ccn2)C1` [Example 63, [(2R,3aR,6aR)-2-{[(3S,4S)-3-methyltetrahydro-2H-pyran-4-yl]amino}hexahydropentalen-3a(1H)-yl]{(1S,4S)-5-[4-(trifluoromethyl)pyridin-2-yl]-2,5-diazabicyclo[2.2.1]hept-2-yl}methanone]: 10 nM, 6 nM, 4 nM and 17.9 nM.
Take `C[C@@H]1COCC[C@H]1N[C@@H]1C[C@H]2CCC[C@@]2(C(=O)N2C[C@@H]3C[C@H]2CN3c2cc(C(F)(F)F)ccn2)C1` [Example 64, [(2R,3aR,6aR)-2-{[(3S,4R)-3-methyltetrahydro-2H-pyran-4-yl]amino}hexahydropentalen-3a(1H)-yl]{(1S,4S)-5-[4-(trifluoromethyl)pyridin-2-yl]-2,5-diazabicyclo[2.2.1]hept-2-yl}methanone]: the affinity on human CCR2B [1] corresponds to a Ki of 12 nM. The Kb at rat CCR2 was determined as 9 nM; at human CCR2B [2] it was 4 nM. Also, on human CCR2B [2] (calcium flux, human MCP-1 2 nM), the IC50 is 16.5 nM.
Consider `CC[C@@H]1COCC[C@@H]1N[C@@H]1C[C@H]2CCC[C@@]2(C(=O)N2C[C@@H]3C[C@H]2CN3c2cc(C(F)(F)F)ccn2)C1` [Example 65, [(2R,3aR,6aR)-2-{[(3S,4S)-3-ethyltetrahydro-2H-pyran-4-yl]amino}hexahydropentalen-3a(1H)-yl]{(1S,4S)-5-[4-(trifluoromethyl)pyridin-2-yl]-2,5-diazabicyclo[2.2.1]hept-2-yl}methanone], for which, at human CCR2B [1], the Ki turned out to be 6 nM. At rat CCR2, the Kb was determined as 8 nM. Moreover, at human CCR2B [2], the IC50 came out at 28 nM and the Kb is 7 nM.
The compound `CC[C@@H]1COCC[C@H]1N[C@@H]1C[C@H]2CCC[C@@]2(C(=O)N2C[C@@H]3C[C@H]2CN3c2cc(C(F)(F)F)ccn2)C1` [Example 66, [(2R,3aR,6aR)-2-{[(3S,4R)-3-ethyltetrahydro-2H-pyran-4-yl]amino}hexahydropentalen-3a(1H)-yl]{(1S,4S)-5-[4-(trifluoromethyl)pyridin-2-yl]-2,5-diazabicyclo[2.2.1]hept-2-yl}methanone] registered a Ki at human CCR2B [1] of 13 nM. For the same compound, the Kb on rat CCR2 turned out to be 8 nM; on human CCR2B [2] it was 11 nM. Moreover, on human CCR2B [2] (calcium flux, human MCP-1 2 nM), the IC50 was 45.8 nM.
Regarding `CCO[C@H]1CN(C2CCC(O)(c3ccc4c(c3)OCO4)CC2)C[C@@H]1NC(=O)CNC(=O)c1cccc(C(F)(F)F)c1` (stereo partly shown) [INCB3344], at CCR2 [3], the “MCP-1 induced pronociception (thermal hyperalgesia and mechanical allodynia)” value is reported as “blocked”.
Turning to `O=C1Nc2ccccc2C2(CCN(CCc3ccc(C(F)(F)F)cc3)CC2)O1` [RS102895], the “hyperalgesia induced by MCP-1 injection in the RVM” value in the assay with CCR2 [4] is reported as “reversed”.
